Values quoted from earlier work, collected in US7220434B2, “Dual-release compositions of a cyclooxygenase-2 inhibitor” (Pharmacia Corporation (of Pfizer, Inc.), priority 2000, dated 2007).

What was measured:
[1] = conventionally formulated for oral delivery

solubility in water | solubility in aqueous media (aqueous media) | Compound | half-life [1]
low solubility in water | unusually insoluble | Cc1ccc(-c2cc(C(F)(F)F)nn2-c2ccc(S(N)(=O)=O)cc2)cc1 [celecoxib, 4-[5-(4-methylphenyl)-3-(trifluoromethyl)-1H-pyrazol-1-yl]benzenesulfonamide] | 
low solubility in water |  | COc1ccc(-c2cc(C(F)F)nn2-c2ccc(S(N)(=O)=O)cc2)cc1F [deracoxib] | 
low solubility in water |  | CS(=O)(=O)c1ccc(C2=C(c3ccccc3)C(=O)OC2)cc1 [rofecoxib, 3-phenyl-4-[4-(methylsulfonyl)phenyl]-5H-furan-2-one] | sufficient to provide therapeutic benefit over a 24-hour period
low solubility in water |  | Cc1onc(-c2ccccc2)c1-c1ccc(S(N)(=O)=O)cc1 [valdecoxib, 4-[5-methyl-3-phenylisoxazol-4-yl]benzenesulfonamide] | 
